“Also recorded” adds a separate entry of the source.
Legend:
[1] = test system: female Fisher 344 rats; test: Growth plate histomorphometry and longitudinal bone growth rate in rats; type: in vivo, rat; settings: 100 mg/kg/day oral gavage 13 days
Description: All studies were approved by the Institutional Animal Care and Use Committee of the Mayo Clinic, Rochester, Minn. Rats were kept in plastic cages (3 per cage) under standard conditions of a 12 hr dark and 12 hr light cycle with food (Purina Laboratory rodent diet 5001, Ralston-Purina, St. Louis, Mo.) and water ad libitum. Rooms were maintained at a temperature of 24° C.
Twenty-five female 3-month-old Fisher 344 rats, weighing approximately 141-160 g, were purchased from Harlan Sprague Dawley (Madison, Wis.). The rats were divided into 3 groups (8 or 9 rats/group) of a baseline group that was sacrificed on the first day of treatment, a control group that was treated with carrier (liposomes) only, and a 2ME treatment group. […] Fluorochromes were given juxta tail vein. Declomycin (20 mg/kg) was given on the first day of treatment and calcein (15 mg/kg) two days prior to sacrifice, in order to label mineralizing bone and cartilage. Twenty-four hours after the last dosage, rats were anesthetized with ketamine HCl (100 mg/kg):xylaxine HCl (10 mg/kg) and sacrificed by decapitation. […] Tibiae were quickly excised and fixed for histomorphometry in a solution of 70% ethanol.
Bone histomorphometry Histomorphometric measurements were performed with the OsteoMeasure Analysis System (OsteoMetrics, Atlanta, Ga.), which consisted of a Pentium 1133 computer coupled to a photomicroscope and image analysis system. […] The region of interest was traced, and the line lengths and area bounded by lines were calculated automatically.
Growth Plate Measurements The longitudinal bone growth rate was measured at 5 equally spaced sites across the growth plate as the distance between the declomycin and calcein labels that had been deposited into the mineralizing front of the hypertrophic zone of the growth plate divided by the 11 day interval between application of the sequential fluorochromes.
Growth plate thickness was measured as the mean distance between the zone of vascular invasion and the resting zone. Thicknesses of the proliferative zone and hypertrophic zone were also measured.
Statistical Analvses All values are expressed as mean±standard error (SE). Significant differences between groups were determined by Fisher's Protected Least Significant Difference post hoc test for multiple group comparisons following detection of significance by 1-way ANOVA. Significance was considered at p values ≦0.05.

[2] = test system: hFOB cells overexpressing estrogen receptor-alpha (hFOB-ERα); test: Cell survival, viable cell count with trypan blue; type: cell-based, human; settings: 2 μM, 72 h
Description: (§1) MG63 and TE85 human osteosarcoma cells, and ROS 17/2.8 rat osteosarcoma cells were grown in DMEM/F12 phenol-red free medium containing 10% charcoal-stripped fetal bovine serum (FBS) and supplemented with 100 units/ml penicillin, 100 μg/ml streptomycin. Cell were incubated at 37° C. under 5% CO2 in air. Cells were plated at 5×10^4 cells per well into 24 well plates containing 1 ml of medium per well. After allowing the cells to attach overnight, media in the wells were replaced with fresh 1 ml medium. Human fetal osteoblasts (hFOB) cells and hFOB cells overexpressing estrogen receptor-alpha (hFOB-ERα) and estrogen receptor-beta (hFOB-ERβ) were grown in DMEM/F12 medium containing FBS, penicillin, streptomycin and Geneticin (300 μg/mL). The laboratory of Dr. B. L. Riggs at Mayo Clinic provided primary human osteoblast (HOB) cells. HOB cells were basically established from cancellous bone obtained as waste from orthopedic procedures and cultured as explants to generate the osteoblast-like monolayers as described by Borke et al., J. Clin. Endocrinol. Metab., 1988, 67:1299-1304. […]
(§2) Estrogen metabolites were diluted 1000 fold to give the final required concentrations in each well, and maintained for 72 hrs. […] Cell growth was measured by taking the viable cell count. At the end of metabolite treatment, cells were harvested, stained with trypan blue, and counted under a light microscope.

[3] = test system: hFOB cells overexpressing estrogen receptor-beta (hFOB-ERβ); test: Cell survival, viable cell count with trypan blue; type: cell-based, human; settings: 2 μM, 72 h
Description: as §1, §2

[4] = test system: osteosarcoma cells and immortalized cell lines; test: Cell survival, summary statement; type: cell-based
Description: MG63 and TE85 human osteosarcoma cells, and ROS 17/2.8 rat osteosarcoma cells were grown in DMEM/F12 phenol-red free medium containing 10% charcoal-stripped fetal bovine serum (FBS) and supplemented with 100 units/ml penicillin, 100 μg/ml streptomycin. Cell were incubated at 37° C. under 5% CO2 in air. Cells were plated at 5×10^4 cells per well into 24 well plates containing 1 ml of medium per well. After allowing the cells to attach overnight, media in the wells were replaced with fresh 1 ml medium. Human fetal osteoblasts (hFOB) cells and hFOB cells overexpressing estrogen receptor-alpha (hFOB-ERα) and estrogen receptor-beta (hFOB-ERβ) were grown in DMEM/F12 medium containing FBS, penicillin, streptomycin and Geneticin (300 μg/mL). The laboratory of Dr. B. L. Riggs at Mayo Clinic provided primary human osteoblast (HOB) cells. HOB cells were basically established from cancellous bone obtained as waste from orthopedic procedures and cultured as explants to generate the osteoblast-like monolayers as described by Borke et al., J. Clin. Endocrinol. Metab., 1988, 67:1299-1304. Human FOB cells and hFOB cells stably transfected with estrogen receptors (ERs) were maintained at 34° C., while all other cells were incubated at 37° C. under 5% CO2 in air.
Estrogen metabolites were diluted 1000 fold to give the final required concentrations in each well, and maintained for 72 hrs. The metabolites 2ME, 2OHE, and E2 were purchased from Sigma Chemical Company (St. Louis, Mo.). Stock solutions for each metabolite were made in 95% ethanol. Cell growth was measured by taking the viable cell count. At the end of metabolite treatment, cells were harvested, stained with trypan blue, and counted under a light microscope.

[5] = test system: MG63 cells; test: Bone matrix protein mRNA levels by northern blot; type: cell-based, human; settings: 10 μM
Description: Time course effects of 2ME on steady-state mRNA levels for bone matrix proteins were determined. MG63 cells in triplicate cultures were treated with 10 μM 2ME. Cells were harvested at the end of 0, 12, 24 and 72 h of treatment and used for RNA isolation. Total RNA isolated from cells was analyzed by northern blot hybridization. Ten μg of RNA sample were denatured by incubation at 52° C. in a solution of 1M glyoxal, 50% dimethyl sulfoxide, and 0.01 M NaH2PO4, and then separated in a 1% agarose gel. RNA separated in agarose gels was transferred to an Amersham Hybond nylon membrane overnight via capillary action in 20× standard saline citrate (SSC) (1×SSC=0.15 M NaCl and 0.015 M sodium citrate, pH 7.0), sodium citrate buffer. The amounts of RNA loaded and transferred were assessed by methylene blue staining of the membranes and hybridization with a [^32P]-labeled cDNA for 18S ribosomal RNA. Membranes were prehybridized for 2 h at 65° C. in buffer containing 50% deionized formamide, 10% dextran sulfate, 5×SSC, 100 μg/ml of heat-denatured single-strand salmon sperm DNA, and 2× Denhardts solution. Hybridization was conducted for 80 min in a buffer containing the above ingredients in addition to a minimum of 10^6 cpm per mL [^32P]-labeled cDNA probe. Labeled type I collagen and osteonectin cDNA were used for probing the blots. The cDNA probes were labeled by random sequence hexanucleotide primer extension using the Megaprime DNA labeling kit from Amersham (Arlington Heights, Ill.). The membranes were washed for 30 min at 45° C. in 2×SSC and for 15 to 60 min in 0.1×SSC at 45° C. The resulting radioactive mRNA bands on the blots were quantitated by Phosphorimager (Molecular Dynamics, Sunnyvale, Calif.).

[6] = test system: MG63 osteosarcoma cells; test: In situ apoptosis by TUNEL assay; type: cell-based, human; settings: 10 μM, 48 h
Description: The effect of 2ME on in situ apoptosis was examined at the single cell level, based on labeling of DNA strand breaks using the TUNEL (terminal deoxynucleotidyl transferase-mediated dUTP nick end labeling) assay per manufacturer's protocol (Boehringer Mannheim, Indianapolis, Ind.). In this method, the ends of broken DNA strands were labeled with fluorescein-dUTP, and apoptotic cells in adherent cultures were detected by fluorescence microscopy. In brief, TUNEL assay was performed on coverslips of adherent cells contained in individual wells of a 24-well culture dish. Cells were washed once with phosphate buffered saline (PBS) and allowed to air dry before being fixed in 4% phosphate-buffered paraformaldehyde pH 7.4 (Sigma, St. Louis, Mo.) for 1 h at room temperature. Following a PBS rinse, endogenous peroxidase was blocked by incubating cells for 1 h at room temperature with 0.3% hydrogen peroxide in methanol (Sigmna). The latter was performed for the option of converting fluorescein-labeled cells to peroxidase-labeled cells and DAB chromogenic detection. Subsequent to a PBS rinse, cells were permeabilized on ice with incubation in 0.1% Triton X-100 in 0.1% sodium citrate for 2 min. Coverslips were rinsed twice in PBS before the addition of TUNEL reaction mixture (100 μl). […] Coverslips were rinsed 3 times with PBS before visualization by fluorescence microscopy. […]

[7] = test system: estrogen receptors; settings: cited from earlier work

COc1cc2c(cc1O)CC[C@@H]1[C@@H]2CC[C@]2(C)[C@@H](O)CC[C@@H]12 [2ME, 2-methoxyestradiol]
Proliferative zone thickness ([1]; mean ± SE, control 42 ± 5): 11 ± 3 μm | Hypertrophic zone thickness ([1]; mean ± SE, control 46 ± 6): 6 ± 2 μm | Growth plate thickness ([1]; mean ± SE, control 153 ± 14): 70±6 μm | effect on longitudinal bone growth (in words) ([1]; proximal tibia, 100 mg/kg/day): decreased; also recorded: highly significant decreases | longitudinal bone growth rate ([1]; proximal tibia, control 55±2): 20±2 μm/day | cell numbers reduced to [2]: 24% | cell numbers reduced to [3]: 24% | reduction of cell survival ([4]; 2 μM, continuous treatment, 72 hours): 85% | reduction of cell survival ([4]; 20 μM): 95% | decrease in osteonectin mRNA level ([5]; 12 h): 50% | decrease in type 1 collagen mRNA level ([5]; 12 h): 26% | decrease in osteonectin mRNA level ([5]; 24 h): 38% | decrease in type 1 collagen mRNA level ([5]; 24 h): 37% | mRNA levels for the bone matrix proteins (in words) ([5]; 72 h): returned to normal levels | TUNEL staining [6]: Positive staining | affinity for estrogen receptors (in words) [7]: negligible affinity
